Results as given in ChEMBL document CHEMBL1146200, “In vitro activity of aurein 1.2 alone and in combination with antibiotics against gram-positive nosocomial cocci” (Antimicrob Agents Chemother, 2007).
Values after ≈ are worked out from the molar mass of the structure shown. Non-standard residues stand in square brackets, D forms with d. Residues, ends and D or L forms follow the SMILES beside them. Phg = N[C@H](C(=O)O)c1ccccc1

Legend:
Staphylococcus aureus [1] = experiment: Antimicrobial activity against […] Staphylococcus aureus ATCC 29213; format: functional; conditions: for MIC50 / MIC90: Staphylococcus aureus, ATCC 29213
Enterococcus faecalis [2] = experiment: Antimicrobial activity against vancomycin-resistant Enterococcus faecalis ATCC 51299; format: functional; conditions: for MIC50 / MIC90: Enterococcus faecalis, ATCC 51299
Staphylococcus aureus [3] = experiment: Antimicrobial activity against […] Staphylococcus aureus ATCC 43300; format: functional; conditions: for MIC50 / MIC90: Staphylococcus aureus, ATCC 43300
Streptococcus pyogenes = experiment: Antimicrobial activity against Streptococcus pyogenes ATCC 19615; format: functional; conditions: for MIC50 / MIC90: Streptococcus pyogenes, ATCC 19615
Enterococcus faecalis [4] = experiment: Antimicrobial activity against vancomycin-susceptible Enterococcus faecalis ATCC 29212; format: functional; conditions: for MIC50 / MIC90: Enterococcus faecalis, ATCC 29212
A549 = experiment: Cytotoxicity against human A549 cells; format: cell-based

## CN[C@H](CC(C)C)C(=O)N[C@H]1C(=O)N[C@@H](CC(N)=O)C(=O)N[C@H]2C(=O)N[C@H]3C(=O)N[C@H](C(=O)N[C@H](C(=O)O)c4cc(O)cc(O)c4-c4cc3ccc4O)[C@H](O)c3ccc(c(Cl)c3)Oc3cc2cc(c3O[C@@H]2O[C@H](CO)[C@@H](O)[C@H](O)[C@H]2O[C@H]2C[C@](C)(N)[C@H](O)[C@H](C)O2)Oc2ccc(cc2Cl)[C@H]1O [VANCOMYCIN]
Staphylococcus aureus [1]
  MBC50: 1 µg/mL (≈ 0.69 µM)
  MBC90: 2 µg/mL (≈ 1.38 µM)
  MIC50: 1 µg/mL (≈ 0.69 µM)
  MIC90: 2 µg/mL (≈ 1.38 µM)
Enterococcus faecalis [2]
  MBC50: 64 µg/mL (≈ 44.2 µM)
  MBC90: 256 µg/mL (≈ 177 µM)
  MIC50: 32 µg/mL (≈ 22.1 µM)
  MIC90: 64 µg/mL (≈ 44.2 µM)
Staphylococcus aureus [3]
  MBC50: 1 µg/mL (≈ 0.69 µM)
  MBC90: 2 µg/mL (≈ 1.38 µM)
  MIC50: 1 µg/mL (≈ 0.69 µM)
  MIC90: 2 µg/mL (≈ 1.38 µM)
Streptococcus pyogenes
  MBC50: 1 µg/mL (≈ 0.69 µM)
  MBC90: 2 µg/mL (≈ 1.38 µM)
  MIC50: 0.5 µg/mL (≈ 0.345 µM)
  MIC90: 1 µg/mL (≈ 0.69 µM)
Enterococcus faecalis [4]
  MBC50: 2 µg/mL (≈ 1.38 µM)
  MBC90: 4 µg/mL (≈ 2.76 µM)
  MIC50: 1 µg/mL (≈ 0.69 µM)
  MIC90: 2 µg/mL (≈ 1.38 µM)

## CC(=O)NC[C@H]1CN(c2ccc(N3CCOCC3)c(F)c2)C(=O)O1 [LINEZOLID]
Staphylococcus aureus [1]
  MIC50: 0.5 µg/mL (≈ 1.48 µM)
  MIC90: 2 µg/mL (≈ 5.93 µM)
Enterococcus faecalis [2]
  MBC50: 4 µg/mL (≈ 11.9 µM)
  MIC50: 1 µg/mL (≈ 2.96 µM)
  MIC90: 2 µg/mL (≈ 5.93 µM)
Staphylococcus aureus [3]
  MBC50: 0.5 µg/mL (≈ 1.48 µM)
  MBC90: 2 µg/mL (≈ 5.93 µM)
  MIC50: 0.5 µg/mL (≈ 1.48 µM)
  MIC90: 2 µg/mL (≈ 5.93 µM)
Streptococcus pyogenes
  MBC50: 1 µg/mL (≈ 2.96 µM)
  MBC90: 2 µg/mL (≈ 5.93 µM)
  MIC50: 0.5 µg/mL (≈ 1.48 µM)
  MIC90: 1 µg/mL (≈ 2.96 µM)
Enterococcus faecalis [4]
  MBC50: 2 µg/mL (≈ 5.93 µM)
  MBC90: 4 µg/mL (≈ 11.9 µM)
  MIC50: 1 µg/mL (≈ 2.96 µM)
  MIC90: 2 µg/mL (≈ 5.93 µM)

## CN(C)c1ccc(O)c2c1C[C@H]1C[C@H]3[C@H](N(C)C)C(O)=C(C(N)=O)C(=O)[C@@]3(O)C(O)=C1C2=O [MINOCYCLINE]
Staphylococcus aureus [1]
  MIC50: 4 µg/mL (≈ 8.74 µM)
  MIC90: 8 µg/mL (≈ 17.5 µM)
Enterococcus faecalis [2]
  MIC50: 16 µg/mL (≈ 35 µM)
  MIC90: 32 µg/mL (≈ 69.9 µM)
Staphylococcus aureus [3]
  MBC50: 8 µg/mL (≈ 17.5 µM)
  MBC90: 32 µg/mL (≈ 69.9 µM)
  MIC50: 4 µg/mL (≈ 8.74 µM)
  MIC90: 8 µg/mL (≈ 17.5 µM)
Streptococcus pyogenes
  MBC50: 8 µg/mL (≈ 17.5 µM)
  MBC90: 16 µg/mL (≈ 35 µM)
  MIC50: 4 µg/mL (≈ 8.74 µM)
  MIC90: 8 µg/mL (≈ 17.5 µM)
Enterococcus faecalis [4]
  MBC50: 16 µg/mL (≈ 35 µM)
  MBC90: 64 µg/mL (≈ 140 µM)
  MIC50: 8 µg/mL (≈ 17.5 µM)
  MIC90: 16 µg/mL (≈ 35 µM)

## C[C@@H](O)[C@H]1C(=O)N2C(C(=O)O)=C(SCCNC=N)C[C@H]12 [IMIPENEM ANHYDROUS]
Staphylococcus aureus [1]
  MBC50: 64 µg/mL (≈ 214 µM)
  MBC90: 256 µg/mL (≈ 855 µM)
  MIC50: 16 µg/mL (≈ 53.4 µM)
  MIC90: 128 µg/mL (≈ 428 µM)
Enterococcus faecalis [2]
  MBC50: 32 µg/mL (≈ 107 µM)
  MBC90: 128 µg/mL (≈ 428 µM)
  MIC50: 16 µg/mL (≈ 53.4 µM)
  MIC90: 32 µg/mL (≈ 107 µM)
Staphylococcus aureus [3]
  MBC50: 4 µg/mL (≈ 13.4 µM)
  MBC90: 16 µg/mL (≈ 53.4 µM)
  MIC50: 1 µg/mL (≈ 3.34 µM)
  MIC90: 4 µg/mL (≈ 13.4 µM)
Streptococcus pyogenes
  MBC50: 1 µg/mL (≈ 3.34 µM)
  MBC90: 4 µg/mL (≈ 13.4 µM)
  MIC50: 0.5 µg/mL (≈ 1.67 µM)
  MIC90: 1 µg/mL (≈ 3.34 µM)
Enterococcus faecalis [4]
  MBC50: 16 µg/mL (≈ 53.4 µM)
  MBC90: 64 µg/mL (≈ 214 µM)
  MIC50: 4 µg/mL (≈ 13.4 µM)
  MIC90: 16 µg/mL (≈ 53.4 µM)

## CC[C@H]1OC(=O)[C@H](C)[C@@H](O[C@H]2C[C@@](C)(OC)[C@@H](O)[C@H](C)O2)[C@H](C)[C@@H](O[C@@H]2O[C@H](C)C[C@H](N(C)C)[C@H]2O)[C@](C)(OC)C[C@@H](C)C(=O)[C@H](C)[C@@H](O)[C@]1(C)O [CLARITHROMYCIN]
Staphylococcus aureus [1]
  MBC50: 32 µg/mL (≈ 42.8 µM)
  MIC50: 4 µg/mL (≈ 5.35 µM)
  MIC90: 16 µg/mL (≈ 21.4 µM)
Enterococcus faecalis [2]
  MBC50: 32 µg/mL (≈ 42.8 µM)
  MIC50: 16 µg/mL (≈ 21.4 µM)
  MIC90: 64 µg/mL (≈ 85.6 µM)
Staphylococcus aureus [3]
  MBC50: 16 µg/mL (≈ 21.4 µM)
  MBC90: 64 µg/mL (≈ 85.6 µM)
  MIC50: 2 µg/mL (≈ 2.67 µM)
  MIC90: 8 µg/mL (≈ 10.7 µM)
Streptococcus pyogenes
  MBC50: 8 µg/mL (≈ 10.7 µM)
  MBC90: 32 µg/mL (≈ 42.8 µM)
  MIC50: 2 µg/mL (≈ 2.67 µM)
  MIC90: 8 µg/mL (≈ 10.7 µM)
Enterococcus faecalis [4]
  MBC50: 16 µg/mL (≈ 21.4 µM)
  MBC90: 128 µg/mL (≈ 171 µM)
  MIC50: 8 µg/mL (≈ 10.7 µM)
  MIC90: 32 µg/mL (≈ 42.8 µM)

## CC[C@H](C)[C@H](NC(=O)[C@H](CCCCN)NC(=O)[C@H](CCCCN)NC(=O)[C@@H](NC(=O)[C@@H](NC(=O)[C@H](CC(=O)O)NC(=O)[C@H](Cc1ccccc1)NC(=O)[C@H](CC(C)C)NC(=O)CN)[C@@H](C)CC)[C@@H](C)CC)C(=O)N[C@@H](C)C(=O)N[C@@H](CCC(=O)O)C(=O)N[C@@H](CO)C(=O)N[C@H](C(N)=O)c1ccccc1 (H-GLFDIIKKIAES[Phg]-NH2)
Staphylococcus aureus [1]
  MBC50: 8 µg/mL (≈ 5.46 µM)
  MBC90: 16 µg/mL (≈ 10.9 µM)
  MIC50: 4 µg/mL (≈ 2.73 µM)
  MIC90: 8 µg/mL (≈ 5.46 µM)
A549
  Activity: 2%
Enterococcus faecalis [2]
  MBC50: 16 µg/mL (≈ 10.9 µM)
  MBC90: 32 µg/mL (≈ 21.8 µM)
  MIC50: 8 µg/mL (≈ 5.46 µM)
  MIC90: 16 µg/mL (≈ 10.9 µM)
Staphylococcus aureus [3]
  MBC50: 8 µg/mL (≈ 5.46 µM)
  MBC90: 16 µg/mL (≈ 10.9 µM)
  MIC50: 4 µg/mL (≈ 2.73 µM)
  MIC90: 8 µg/mL (≈ 5.46 µM)
Streptococcus pyogenes
  MBC50: 4 µg/mL (≈ 2.73 µM)
  MBC90: 8 µg/mL (≈ 5.46 µM)
  MIC50: 2 µg/mL (≈ 1.36 µM)
  MIC90: 4 µg/mL (≈ 2.73 µM)
Enterococcus faecalis [4]
  MBC50: 16 µg/mL (≈ 10.9 µM)
  MBC90: 32 µg/mL (≈ 21.8 µM)
  MIC50: 8 µg/mL (≈ 5.46 µM)
  MIC90: 16 µg/mL (≈ 10.9 µM)
